Laboratory results: publication PMC12666569, “The Pseudomonas aeruginosa membrane histidine kinase BqsS/CarS directly senses environmental ferrous iron (Fe^2+)” (The Journal of Biological Chemistry, 2025)

B1: Pseudomonas aeruginosa membrane histidine kinase BqsS/CarS, intact (enzyme)
chain: MRSIQRRLSVGLFAVLLVVGLVLAQTGLWLFDQGLRRYFAGNLREEAENLLVAMVRGPNGMQLDEQRLNPAFQRPYSGRYFVIELEKDTWRSRSLWDSELEVPHKKGLVQGLVDGPEEQRLLVFRGHYKRMGQKLRIVVAQDYTPILESFARVQWMGLGAGALALLLVLLLQRLTVRRSLRPLEEVRLQIAQLQQGQRSQLDNQAPEELEPLVEQINHLLAHTEETLKRSRNALGNLGHALKTPLAVLVSLAEREEMARQPELQQVLREQLEQIQQRLGRELGKARLVGEALPGAHFDCAEELPSLCDTLRLIHGPHLQVSWSAPPGLRLPWDREDLLEMLGNLLDNACKWADSEVRLTVAQGEGMVRLKVDDDGPGILPDQRQAVLERGTRLDEQVSGHGLGLGIARDIAEACGGRLSLEDSPLGGLRVSVELPLQKSGRAARA
notes: also called PaBqsS; intact PaBqsS; source: E. coli BL21 (DE3), membranes solubilized in detergent (Fos-Chol-14), purified (IMAC, TEV cleavage, second IMAC, SEC)

Key:
[1] = target: T1, intact PaBqsS (Pseudomonas aeruginosa, UniProt Q9I0I2); details: 5.0 mM Mg2+, 37 °C, SEC buffer pH 7.5, Fos-Chol-14; no added Fe2+
T1 construct: gene carS

[2] = target: the molecule itself; test: SEC; cleaved, purified PaBqsS in detergent (Fos-Chol-14, also glyco-diosgenin (GDN)); HiLoad 16/600 Superose 6 pg; 50 mM Tris pH 7.5, 100 mM NaCl, 1 mM TCEP, 5% glycerol, 0.02% Fos-Chol-14

| Molecule | specific activity [1] | stoichiometry N [2] |
| --- | --- | --- |
| Nc1ncnc2c1ncn2[C@@H]1O[C@H](COP(=O)(O)OP(=O)(O)OP(=O)(O)O)[C@@H](O)[C@H]1O [ATP] | We then tested the ATPase activity of intact PaBqsS purified in Fos-Chol-14 | – |
| B1 | – | 2 |
